# Results as given in patent EP0232893A2, “Antibiotics of the streptogramine type, a microbiological process for their preparation and their use as medicaments and food additives” (HOECHST AKTIENGESELLSCHAFT, priority 1986, dated 1987).
# *1 amine or outer side, *2 acyl side, *3 side chain or, on linkers, in order; H or OH if unused. Where a SMILES comes first, the peptide text is derived from it. Bridges are numbered along the chain shown (N, C = ends). [ ]: non-standard residue; d: D form. The star is where a group is joined. X1 = CC(C)[C@H](C)[C@@H](C(=O)[*:2])N(C)[*:1]; d(cisHyp) = O=C(O)[C@H]1C[C@@H](O)CN1; Picolinoyl(3-OH) = O=C(c1ncccc1O)*; NMePhg = CN[C@H](C(=O)O)c1ccccc1; Sar = CNCC(=O)O
# Experiment: Feeding trials in animals, growth promotion
# Format: in vivo, Mastgeflügel, Schweinen, Mastrindern, Schafen und Kaninchen
# Conditions: e.g. fattening poultry, pigs, fattening cattle, sheep, rabbits
# Excerpt: Dies gilt auch für die einzelnen Komponenten, insbesondere für das Neoviridogrisein IV, für das ein wachstumsfördernder -Effekt bisher nicht beschrieben war. Auch die Legeleistung von Geflügel, insbesondere das Eigewicht und die Milchleistung von Milchkühen, -schafen und -ziegen wird durch den Antibiotikakomplex oder seine einzelnen Komponenten positiv beeinflußt.
# Zur Erzielung des Effekts verwendet man Konzentrationen von 2 - 100 ppm, vorzugsweise 2 - 50 ppm, insbesondere 5 - 20 ppm, bezogen auf Alleinfutter. Entsprechend höher sind die Konzentrationen, wenn die Antibiotika als Zusatz zu Beifutter verabreicht werden.
compound,measurement,value
CC(C)C[C@H]1NC(=O)[C@@H](NC(=O)c2ncccc2O)[C@@H](C)OC(=O)[C@H](c2ccccc2)N(C)C(=O)[C@H](C)NC(=O)[C@H]([C@@H](C)C(C)C)N(C)C(=O)CN(C)C(=O)[C@H]2C[C@@H](O)CN2C1=O [Neoviridogrisein IV] ({Picolinoyl(3-OH)}-T[dL][d(cisHyp)][Sar][X1]A[NMePhg]; ester 1-C),wachstumsfördernde Wirkung,ausgeprägte wachstumsfördernde Wirkung
